Test system: Plasmodium falciparum 3D7
Assay: P. falciparum 3D7 asexual blood stage assay, Assay Procedure Version 2 (SYBR green readout)
Assay type: cell-based
Conditions: Version 2 of the assay procedure (asterisk *), 72 h incubation in infected erythrocytes, 50,000 nM to 15 nM
Procedure: Asexual Blood Stage Assay
The assay used to measure the effect of test compounds on a bloodstream stage of Plasmodium falciparum 3D7 strain employs SYBR green as the readout. This is a dye that binds to double stranded deoxyribonucleic acid (DNA) with a resulting increase in fluorescence, allowing detection of P. falciparum DNA in infected erythrocytes, and thereby providing a measure of parasite growth and propagation.
P. falciparum Culture Maintenance
Erythrocytes (A+blood) were prepared for both parasite culture and assay by washing 4 times with incomplete media (15.9 g RPMI 1640 (25 mM HEPES, L-glutamine), 1 g NaHCO3, 2 g glucose, 400 μL gentacin (500 mg/mL), 2 mL hypoxanthine solution (13.6 g/L in 0.1M NaOH pH 7.3) in 1 litre of media). The cells were centrifuged at 1800 g for 5 minutes, before decanting the supernatant and re-suspending in fresh incomplete media. On the final wash, the cells were re-suspended in complete media (incomplete media with 5 g/L AlbumaxII), and centrifuged at 1800 g for 3 minutes. This cell sediment was treated as 100% haematocrit.
P. falciparum 3D7 was cultured in erythrocytes at 5% haematocrit in complete media at 37° C. (1% O2, 3% CO2, balance N2). Cultures were split on a weekly basis to achieve a 1% parasitaemia in erythrocites at 5% haematocrit in fresh media. Culture media is replaced by fresh media every other day (2 times during the week).
[formula] where A=% inhibition at bottom; B=% inhibition at top; C=EC50; D=slope; x=inhibitor concentration; and y=% inhibition. […] Assay Procedure—Version 2
On day 1, test compounds were added to assay plates using Echo dispensing technology ([…] and 20 points titration). 50 nL of each compound dilution was added to 50 μL of culture (5% haematocrit, 0.5% parasitaemia) and incubated for 72 h at 37° C. (1% O2, 3% CO2, balance N2). Final concentrations of test compounds ranged from 50,000 nM to 15 nM, in […].
On day 4, 10 μL SYBR green (Invitrogen S7563 supplied as 10,000× concentrate in DMSO) pre-diluted to 3× concentrate with Lysis buffer (20 mM Tris pH 7.9, 5% EDTA, 0.16% w/v, 1.6% TX100 v/v) was added to the cultures and incubated in the dark, overnight, at room temperature.
On day 5, fluorescent signal was measured using a BioTek plate reader (excitation 485 nm, emission 528 nm). All data were processed using IDBS ActivityBase. Raw data were converted into percent inhibition through linear regression by setting the high inhibition control (mefloquine) as 100% and the no inhibition control (DMSO) as 0%. Quality control criteria for passing plates were as follows: Z′>0.5, S:B>3, % CV(no inhibition control)<15. The formula used to calculate Z′ is:
[formula] where μ denotes the mean; σ denotes the standard deviation; p denotes the positive control; and n denotes the negative control.
All EC50 curve fitting was undertaken using the following bi-phasic two site dose response using XLfit model 300 (IDBS):
[formula] where A=100 minus the top of the upper curve 1 and the bottom of lower curve; B=Hill slope; log(C)=IC50 concentration at lower site; log(D)=IC50 concentration at upper site; x=inhibitor concentration; and y=% inhibition.

[1] = Plasmodium falciparum, 3D7, Erythrocyte, 72 h

SMILES	IC50 [1]	IC50
C[C@@]1(c2cccc(Nc3ccc(C#N)cc3)c2Cl)CC(=O)N([C@H]2C[C@@](C)(O)C2)C(=N)N1 [Example 123, 4-{2-Chloro-3-[(4S)-1-(3-hydroxy-3-methylcyclobutyl)-2-imino-4-methyl-6-oxo-hexahydropyrimidin-4-yl]-anilino}benzonitrile]	552 nM	–
CC(C)(C)c1ncc(Nc2cccc([C@]3(C)CC(=O)N(C4CCC(F)(F)CC4)C(=N)N3)c2Cl)cn1 [Example 141, (6S)-6-{3-[(2-tert-Butyl-pyrimidin-5-yl)amino]-2-chloro-phenyl]-3-(4,4-difluoro-cyclohexyl)-2-imino-6-methyl-hexahydropyrimidin-4-one]	180 nM	–
Cn1cnc2cc(Nc3cccc([C@]4(C)CC(=O)N(C5CCOCC5)C(=N)N4)c3Cl)cnc21 [Example 116, (6S)-6-{2-Chloro-3-[(3-methyl-imidazo[4,5-b]pyridin-6-yl)-amino]phenyl}-2-imino-6-methyl-3-(tetrahydropyran-4-yl)hexahydropyrimidin-4-one]	556 nM	–
C[C@@]1(c2cccc(Nc3ccc(C4(C#N)CCC4)nc3)c2Cl)CC(=O)N(C2CCOCC2)C(=N)N1 [Example 103, 1-(5-{2-Chloro-3-[(4S)-2-imino-4-methyl-6-oxo-1-(tetrahydro-pyran-4-yl)hexahydropyrimidin-4-yl]anilino}pyridin-2-yl)-cyclobutanecarbonitrile]	551 nM	–
Cn1cc2c(Nc3cccc([C@]4(C)CC(=O)N(C5CCOCC5)C(=N)N4)c3Cl)cccc2n1 [Example 77, (6S)-6-{2-Chloro-3-[(2-methyl-indazol-4-yl)amino]phenyl}-2-imino-6-methyl-3-(tetrahydro-pyran-4-yl)hexahydropyrimidin-4-one]	791 nM	–
C[C@@]1(c2cccc(Nc3ccc(F)cn3)c2Cl)CC(=O)N([C@H]2C[C@@](C)(O)C2)C(=N)N1 [Example 126, (6S)-6-{2-Chloro-3-[(5-fluoro-pyridin-2-yl)amino]phenyl}-3-(3-hydroxy-3-methylcyclo-butyl)-2-imino-6-methyl-hexahydropyrimidin-4-one]	1750 nM	–
C[C@@]1(c2cccc(Nc3cccc(-c4ccccc4)c3)c2Cl)CC(=O)N(C2CCOCC2)C(=N)N1 [Example 58, (6S)-6-[2-Chloro-3-(3-phenyl-anilino)phenyl]-2-imino-6-methyl-3-(tetrahydropyran-4-yl)hexahydropyrimidin-4-one]	1630 nM	–
Cn1cc2cc(Nc3cccc([C@]4(C)CC(=O)N(C5CCOCC5)C(=N)N4)c3Cl)ccc2n1 [Example 78, (6S)-6-{2-Chloro-3-[(2-methyl-indazol-5-yl)amino]phenyl}-2-imino-6-methyl-3-(tetrahydro-pyran-4-yl)hexahydropyrimidin-4-one]	1420 nM	–
C[C@@]1(c2cccc(Nc3ccc(C(F)(F)F)cc3C#N)c2Cl)CC(=O)N(C2CCOCC2)C(=N)N1 [Example 83, 2-{2-Chloro-3-[(4S)-2-imino-4-methyl-6-oxo-1-(tetrahydro-pyran-4-yl)hexahydropyrimidin-4-yl]anilino}-5-(trifluoro-methyl)benzonitrile]	357 nM	–
Cc1cnc(Nc2cccc([C@]3(C)CC(=O)N([C@H]4C[C@@](C)(O)C4)C(=N)N3)c2Cl)cn1 [Example 129, (6S)-6-{2-Chloro-3-[(5-methyl-pyrazin-2-yl)amino]phenyl}-3-(3-hydroxy-3-methylcyclo-butyl)-2-imino-6-methyl-hexahydropyrimidin-4-one]	1330 nM	–
C[C@@]1(c2cccc(Nc3ccc(OC(F)F)nc3)c2Cl)CC(=O)N(C2CCOCC2)C(=N)N1 [Example 42, (6S)-6-(2-Chloro-3-{[6-(difluoromethoxy)pyridin-3-yl]-amino}phenyl)-2-imino-6-methyl-3-(tetrahydropyran-4-yl)hexahydropyrimidin-4-one]	269 nM	–
C[C@@]1(c2cccc(Nc3cncc4ccccc34)c2Cl)CC(=O)N(C2CCOCC2)C(=N)N1 [Example 46, (6S)-6-[2-Chloro-3-(isoquinolin-4-ylamino)phenyl]-2-imino-6-methyl-3-(tetrahydropyran-4-yl)hexahydropyrimidin-4-one]	425 nM	–
Cc1ccc(Nc2cccc([C@]3(C)CC(=O)N(C4CCOC(C)(C)C4)C(=N)N3)c2Cl)cn1 (single isomer, unassigned) [Example 145, (6S)-6-{2-Chloro-3-[(6-methyl-pyridin-3-yl)amino]phenyl}-3-[(4R*)-2,2-dimethyltetrahydro-pyran-4-yl]-2-imino-6-methyl-hexahydropyrimidin-4-one]	–	1260 nM
C[C@@]1(c2cccc(Nc3cccc(Oc4ccccc4)c3)c2Cl)CC(=O)N(C2CCOCC2)C(=N)N1 [Example 75, (6S)-6-[2-Chloro-3-(3-phenoxy-anilino)phenyl]-2-imino-6-methyl-3-(tetrahydropyran-4-yl)hexahydropyrimidin-4-one]	1460 nM	–
Cc1ccc(Nc2cccc([C@]3(C)CC(=O)N(C4CCC(F)(F)CC4)C(=N)N3)c2Cl)cn1 [Example 139, (6S)-6-{2-Chloro-3-[(6-methyl-pyridin-3-yl)amino]phenyl}-3-(4,4-difluorocyclohexyl)-2-imino-6-methylhexahydro-pyrimidin-4-one]	132 nM	–
C[C@@]1(c2cccc(Nc3ccc(-c4ccccc4)cc3)c2Cl)CC(=O)N(C2CCOCC2)C(=N)N1 [Example 71, (6S)-6-[2-Chloro-3-(4-phenyl-anilino)phenyl]-2-imino-6-methyl-3-(tetrahydropyran-4-yl)hexahydropyrimidin-4-one]	3530 nM	–
C[C@@H]1C[C@H](N2C(=N)N[C@](C)(c3cccc(Nc4ccc(OCC(F)F)nc4)c3Cl)CC2=O)CCO1 (relative stereo) [Example 203, (6S)-6-(2-Chloro-3-{[6-(2,2-difluoroethoxy)pyridin-3-yl]-amino}phenyl)-2-imino-6-methyl-3-[(2R*,4R*)-2-methyl-tetrahydropyran-4-yl]-hexahydropyrimidin-4-one]	57 nM	–
C[C@@]1(c2cccc(Nc3ccc(C4CC4)nc3)c2Cl)CC(=O)N(C2CCC(F)(F)CC2)C(=N)N1 [Example 142, (6S)-6-{2-Chloro-3-[(6-cyclo-propylpyridin-3-yl)amino]-phenyl}-3-(4,4-difluoro-cyclohexyl)-2-imino-6-methyl-hexahydropyrimidin-4-one]	232 nM	–
COc1ccncc1Nc1cccc([C@]2(C)CC(=O)N(C3CCOCC3)C(=N)N2)c1Cl [Example 54, (6S)-6-{2-Chloro-3-[(4-methoxypyridin-3-yl)amino]-phenyl}-2-imino-6-methyl-3-(tetrahydropyran-4-yl)-hexahydropyrimidin-4-one]	655 nM	–
C[C@@]1(c2cccc(Nc3ccc4c(c3)OCO4)c2Cl)CC(=O)N(C2CCOCC2)C(=N)N1 [Example 59, (6S)-6-[3-(1,3-Benzodioxol-5-ylamino)-2-chlorophenyl]-2-imino-6-methyl-3-(tetrahydro-pyran-4-yl)hexahydropyrimidin-4-one]	365 nM	–
C[C@@]1(c2cccc(Nc3ccc(C(F)(F)F)nc3)c2Cl)CC(=O)N([C@H]2C[C@@](C)(O)C2)C(=N)N1 [Example 124, (6S)-6-(2-Chloro-3-{[6-(trifluoromethyl)pyridin-3-yl]-amino}phenyl)-3-(3-hydroxy-3-methylcyclobutyl)-2-imino-6-methylhexahydropyrimidin-4-one]	509 nM	–
COc1cc(Nc2cccc([C@]3(C)CC(=O)N(C4CCOCC4)C(=N)N3)c2Cl)ccn1 [Example 87, (6S)-6-{2-Chloro-3-[(2-methoxypyridin-4-yl)amino]-phenyl}-2-imino-6-methyl-3-(tetrahydropyran-4-yl)-hexahydropyrimidin-4-one]	666 nM	–
C[C@@]1(c2cccc(Nc3ccc(Cl)cc3S(C)(=O)=O)c2Cl)CC(=O)N(C2CCOCC2)C(=N)N1 [Example 118, (6S)-6-{2-Chloro-3-[4-chloro-2-(methylsulfonyl)anilino]-phenyl}-2-imino-6-methyl-3-(tetrahydropyran-4-yl)-hexahydropyrimidin-4-one]	138 nM	–

From patent US11479546B2, “Antimalarial hexahydropyrimidine analogues” (UCB Biopharma SRL, priority 2018, dated 2022)
